Test results taken from patent US9499823B2, “Constructs expressing chimeric receptors and use thereof for the controlled activation of defence response to pathogens in plants” (priority 2009, dated 2016).
Where no end group is shown, it is not given here.

Tests used:
[1] = test system: agroinfiltrated leaves of N. tabacum ecotype SR1; experiment: Receptor internalization in agroinfiltrated tobacco leaves; format: cell-based, Nicotiana tabacum; conditions: 10 μM flg22, 30 min
Experimental: E) Relative variation of fluorescence in agroinfiltrated tobacco leaves expressing EFR, FLS2, eJMC and TMC and treated with 10 μM elfl8 or 10 μM flg22 for 30 min.
(§1) The GFP-dependent fluorescence was monitored from 2 to 4 days post infection in cells of the lower epidermis. Pieces of leaf were randomly cut from the infected area and mounted in water or supplemented with elicitors for microscopic observations. Flg22 and elfl8 were used at 10 μM while oligosaccharides were used at 100 μg/mL. Materials were analyzed using a Leica DM IRE epifluorescence microscope equipped with a digital cooled camera (DFC350FX R2; Leica). GFP fluorescence was excited with a 488-nm laser line, and emitted fluorescence was collected at 543-nm. The Leica Confocal Software and Adobe Photoshop 5.0 were used for post-acquisition image processing. All samples were imaged with the 40× or 100× oil objectives. Pictures were taken in Kahlman frame giving an average of 16 scans for the dynamics of internalization and 4 scans for the cellular localizations.
The behaviour of TMC and eJMC upon treatment with flg22 and elfl8 was also analysed in agroinfiltrated leaves of N. tabacum ecotype SR1 and compared to that of EFR and FLS2. […] Instead, in the eJMC expressing plants fluorescence decreased within 10-30 min after stimulation with flg22, at an extent similar to that observed in Arabidopsis, i.e. by 25% and 35% after 20 min and 30 min, respectively (FIG. 3E).

[2] = test system: agroinfiltrated Arabidopsis thaliana Col-0 leaves; experiment: Receptor internalization: decrease of GFP fluorescence by confocal microscopy in agroinfiltrated Arabidopsis Col-0 leaves; format: cell-based; conditions: 10 μM flg22, 30 min
Experimental: PCR templates are shown in bold. Primers listed in Table 1 are shown in capital letters. Stable transgenic lines were generated using the standard A. tumefaciens-mediated gene transfer procedure of inflorescence infiltration (Bent et al., 2006). Independent transformed plant pools were kept separate for the selection of independent transgenic lines based on their phosphinotrycin resistance and leaves GFP fluorescence. Tobacco and Arabidopsis transient transgenic lines were prepared by infiltrating with Agrobacterium tumefaciens carrying the individual constructs, as described by Reca (2008).
as §1, with “localizations. […]” for “localizations.”
The dynamics of fluorescence localization upon treatment with elicitors was then studied. Whereas endocytosis of surface receptors upon ligand binding often occurs in animals (Warren and Landgraf 2006), this mechanism in plants has emerged only recently (Geldner & Robatzek 2008) and, so far, FLS2 is the only receptor involved in plant immunity shown to undergo endocytosis upon the specific stimulation with flg22 (Robatzek et al., 2006). The authors tested the effect of flg22 and elf 18, i.e. the peptides specifically recognized by FLS2 and EFR respectively, and oligogalacturonides with a degree of polymerization between 10 and 16 (OGs), which act as general elicitors of defense responses in several plants. Explants from agroinfiltrated Arabidopsis leaves at 2 dpi were treated with elicitors and then subjected to confocal microscopy analysis. […] Instead, when eJMC-expressing explants were stimulated with flg22, the fluorescent signal decreased by 25% and 40% after 20 min and 30 min, respectively (FIG. 3B).
The first chimeric receptor, indicated as WEG, comprised the WAK1 ectodomain fused to the TM-iJM-kinase portion of EFR and was designed to test the ability of the WAK1 ectodomain to perceive OGs and transmit the signal inside the cell. […] Both WEG and EWAK as well as WAK1 were fused to GFP and used in agroinfiltration experiments (FIG. 5A). […] Western-blot analysis using GFP-specific antibodies on proteins from IWF and microsomal fractions prepared from infiltrated leaves confirmed the plasma membrane localization of both fluorescent chimeras (FIG. 5D). The effect of OGs on the internalization of WEG was followed in agroinfiltrated Arabidopsis Col-0 leaves. […] This might be due to the inability of WEG to uncouple its ectodomain from pectins, since it is known that WAK1 strongly binds to pectin and only denaturing treatments allow its separation from cell wall (He et al., 1996). On the other hand, affinity studies have shown that WAK1 interact with cell wall pectins that are in a Ca^2+-induced conformation (i.e. the structures called “egg boxes”) and that the interaction is disrupted by adding a chelating agent such as EDTA (Decreux et al., 2005; Cabrera et al., 2008). The authors therefore tested whether OG-induced internalization of WEG occurred in the presence of 5 mM EDTA. WEG-expressing agroinfiltrated leaves were syringe-infiltrated with OGs and after 30 min the tissues were mounted in the presence of EDTA for confocal microscopy analysis. […]

[3] = test system: ethylene biosynthesis in tobacco leaves; experiment: Induction of ethylene biosynthesis in agroinfiltrated tobacco leaf explants; format: cell-based, Nicotiana tabacum; conditions: flg22, 2 h; compared with EFR-expressing explants as negative controls
Experimental: F) Induction of ethylene biosynthesis in agroinfiltrated tobacco leaves expressing the fluorescent EFR, FLS2, TMC, eJMC and eJMC^Y859A. NC: negative control, represented by agroinfiltrated leaf tissues expressing fluorescent EFR or FLS2 and elicited with flg22 or elfl8, respectively. Results are averages±standard error (n=3).
Excised infiltrated leaf sectors were stimulated for 2 h with water or the elicitor ([…] and 100 μg/ml for OGs). Values are means±s.e.m. (N=3).
E) Induction of ethylene biosynthesis in agroinfiltrated tobacco leaves expressing EFR, WAK1, WEG and EWAK. Each construct was stimulated for 2 h with elfl8 (10 μM) or OGs (100 μg/mL). NC: negative control, represented by agroinfiltrated leaf tissue expressing EFR or FLS2 when OGs or elfl8, respectively, were used for elicitation. Error bars indicate the standard error of three independent replicates.
(A) Induction of ethylene biosynthesis in agroinfiltrated tobacco explants expressing EFR, WAK1, WEG and EWAK. […] Agroinfiltrated leaf tissues expressing EFR or WEG and elicited with OGs or elfl8 respectively, represented our negative control. Values are means±s.e.m. (N=3). (B) Elicitor-induced gene expression in untransformed Col-0 and Col-0 efr plants, and in transgenic Arabidopsis Col-0 efr plants stably expressing WEG. Accumulation of At3g22270 and At4g37640 transcripts was analysed by semi-quantitative PCR, using the UBQ5 gene for normalization. Adult leaves were syringe-infiltrated with water, OGs (25 μg/ml) or elfl8 (10 μM) for 3 h. The experiment was repeated three times with similar results. The same experiment was performed in a second independent transgenic line expressing WEG with similar results.
Approximately 150 mg of tobacco agroinfiltrated leaf were cut in small slices and extensively washed with sterile distilled water. The explants were placed in sealed 10 mL flasks containing 2 mL of sterile water alone or supplemented with 100 mg L^−1 OGs, or 1 μM flg22 or 10 μM elfl8. 450 μl headspace samples were withdrawn from the vial after 2 h treatment and analyzed by gas chromatography-mass spectrometry using an Agilent 6850A gas chromatograph coupled to a 5973N quadrupole mass selective detector (Agilent Technologies, Palo Alto, Calif., USA). Chromatographic separations were carried out an HP Plot-Q fused-silica capillary column (30 m×0.32 mm i.d.) coated with polystyrene-divinylbenzene (film thickness 0.20 μm) as stationary phase. Injection mode: splitless at a temperature of 220° C. The initial temperature of the oven was held at 50° C. for 8 min then ramped to 220° C. at a rate of 15° C./min and held for 5 min. Helium was used as carrier gas at a constant flow of 1.0 ml/min. Mass spectra were collected both in full scan and in SIM mode monitoring the ions m/z m/z 26, m/z 27 and m/z 28 (ionization energy 70 eV; ion source 280° C.; ion source vacuum 10^−5 Torr).

[4] = test system: RetOx, CYP81F2 and PAD3 transcripts; experiment: Elicitor-induced accumulation of Ret-Ox, CYP81F2 and PAD3 transcripts, semi-quantitative PCR; format: cell-based, Arabidopsis thaliana; conditions: flg22 1 μM, 30 minutes
Experimental: B) Elicitor induced accumulation of Ret-Ox, CYP81F2 and PAD3 transcripts analysed by semi-quantitative PCR, using the UBQ5 gene for normalization. Leaves were incubated with water, flg22 (1 μM), elfl8 (10 μM) or a generic peptide (10 μM) for 30 minutes. The experiment was repeated three times with similar results. The same experiment was performed in a second independent transgenic line expressing eJMC with similar results.
3,3′-diaminobenzidine (DAB) staining, callose deposition and gene resistance analysis were assayed as described (Galletti et al., 2008). For measuring active oxygen species released by tobacco agroinfiltrated plants after elicitor treatment, the authors used a modified luminol-dependent assay (Gomez et al., 1999). Slices, corresponding to approximately 30 mg fresh weight, were transferred to assay tubes containing 1 μM flg22 or 10 μM elfl8 in aqueous solution supplied with 40 μM luminol (SIGMA). Chemo-luminescence was measured in a liquid scintillation counter (LS-6500, Beckman) after 5 and 15 min upon addition of elicitors.
Fluorescent eJMC and FLS2 were also stably expressed in transgenic Arabidopsis ecotype Wassilewskija (Ws-0), which carries EFR but lacks a flg22 perception system (Gomez-Gomez et al., 1999, Bauer et al., 2001). Transformed T1 plants expressing the proteins, named eJMC plants and FLS2 plants, respectively, were selected by confocal microscopy analysis of adult rosette leaves. […] Fluorescence was detected only in adult rosette leaves, likely due to a low expression level of the receptor at the different developmental stages.

Substance | internalization after stimulation with flg22 [1] | decrease in fluorescence upon treatment with flg22 [2] | ethylene release induced by flg22 [3] | expression of RetOx, CYP81F2 and PAD3 in untransformed Ws-0 plants [4]
TMC: chimera (Ala817FLS2-Leu661EFR): FLS2 LRR, eJM and N-terminal half of TM fused to C-terminal half of EFR TM, iJM and kinase | Neither FLS2 nor TMC underwent internalization | did not show any decrease in fluorescence | only a weak response | 
QRLSTGSRINSAKDDAAGLQIA [flg22] |  |  |  | not in the untransformed plants
